Data as given in patent US10266510B2, “Antimicrobial and cytotoxic compounds and methods for treating cancer, a bacterial infection, and/or a fungal infection” (King Abdulaziz University, priority 2017, dated 2019).

Key:
Assay in all cases: Well diffusion agar method, inhibition zone
Format in all cases: cell-based
[1] = system: Escherichia coli ATCC 25922
Text: (§1) The ability to inhibit the growth of Gram-positive and Gram-negative bacteria, yeasts and filamentous fungi was observed using an overlay method (S. R. Connell, D. M. Tracz, K. H. Nierhaus, D. E. Taylor, Antimicrob. Agents Chemother. 47, 3675 (2003), incorporated herein by reference in its entirety).
(§2) The common pathogenic and food spoilage microorganisms were selected for their relevance in bakery products and other food: the gram-positive bacteria: Bacillus subtilits NRRL-B-4219, Staphylococcus aureus ATCC 6538, Enterococcus faecalis ATCC 19433; the gram negative bacteria: Escherichia coli ATCC 25922, Pseudomonas aeruginosa ATCC 9027, Proteus sp.; yeasts, such as Candida albicans ATCC 10231; and fungi: Aspergillus niger NRRL 2766 (equivalent to ATCC 16888), and Aspergillus flavus ATCC 16883. The bacteria were slanted on nutrient agar (Merck, Darmstadt, Germany), yeast was slanted and mentioned on Sabaroud's agar medium (Lab M., Bury, Lancashire, UK) and the fungi was slanted and mentioned on the potato Dextrose Agar medium (Lab M Limited, Bury, Lancashire, UK). Mueller-Hinton agar (Lab M., Bury, Lancashire, UK) following the manufacturer's instructions was used for the assay.
(§3) All compounds were dissolved in dimethyl sulfoxide (RFCL Limited, New Delhi, India) at 50 μg/mL concentration as shown in Table 4 in comparison with different standard antibiotics. Antibiotic discs of Streptomycin (S) (10 μg), Oxytetracycline (T) (30 μg), and Tetracyciline (TE) (30 μg) were used as positive controls for bacteria. Neomycin (N) (30 μg), was used for fungi.
(§4) The antibacterial screening was performed with the well diffusion agar method (S. T. Williams, M. Goodfellow, E. M. H. Wellington, J. C. Vickers, G. Alderson, P. H. A. Sneath, S. M. J. Sackins, A. M. Mortimer, J. Gen. Microbiol. 129, 1815(1983); and B. Bonev, J. Hooper, J. Parisot, J. Antimicrob. Chemother., 61, 1295(2008), each incorporated herein by reference in their entirety). The organisms were streaked in radial patterns on the agar plates. Plates were incubated under aerobic conditions at 37° C. and 28° C. for 24 h and 48 h for bacteria and fungi, respectively. All prepared solutions were treated under the same conditions under the same incubated plates. All tests were performed in triplicate. Plates were examined for evidence of antimicrobial activities, represented by a zone of inhibition of the microorganism's growth around the holes, and diameters of clear zones were expressed in millimeters (R. Cruickshank, J. P. Duguid, B. P. Marmion, R. H. A. Swain, The practice of medicinal microbiology. In Medical Microbiology, 12th ed.; Churchill Livingstone: Edinburgh, UK, Volume 11, pp. 196-202 (1975), incorporated herein by reference in its entirety).

[2] = system: Enterococcus faecalis ATCC 19433
Text: as §1, §2, §3, §4

[3] = system: Candida albicans ATCC 10231
Text: as §1, §2, §3, §4

[4] = system: Staphylococcus aureus ATCC 6538
Text: as §1, §2, §3, §4

[5] = system: Pseudomonas aeruginosa ATCC 9027
Text: as §1, §2, §3, §4

[6] = system: Aspergillus flavus ATCC 16883
Text: as §1, §2, §3, §4

[7] = system: Aspergillus niger NRRL 2766
Text: as §1, §2, §3, §4

[8] = system: Bacillus subtilits NRRL-B-4219
Text: as §1, §2, §3, §4

Proteus sp. = system: Proteus sp.
Text: as §1, §2, §3, §4

SMILES: [H]/N=C(/N)N[C@H]1[C@H](O)[C@@H](O)[C@H](O[C@@H]2O[C@@H](C)[C@](O)(C=O)[C@H]2O[C@@H]2O[C@@H](CO)[C@H](O)[C@@H](O)[C@@H]2NC)[C@@H](N/C(N)=N\[H])[C@@H]1O (relative stereo) [S*, Streptomycin]
- Inhibition zone, E. coli ([1]; standard antibiotic disc 10 μg): 0 mm
- Inhibition zone, Ent. faecalis ([2]; standard antibiotic disc 10 μg): 0 mm
- Inhibition zone, C. albicans ([3]; standard antibiotic disc 10 μg): 12 mm
- Inhibition zone, S. aureus ([4]; standard antibiotic disc 10 μg): 0 mm
- Inhibition zone, P. aeruginosa ([5]; standard antibiotic disc 10 μg): 0 mm
- Inhibition zone, A. flavus ([6]; standard antibiotic disc 10 μg): 0 mm
- Inhibition zone, A. niger ([7]; standard antibiotic disc 10 μg): 0 mm
- Inhibition zone, B. subtilits ([8]; standard antibiotic disc 10 μg): 14 mm
- Inhibition zone, Proteus sp. (Proteus sp.; standard antibiotic disc 10 μg): 0 mm

SMILES: NC[C@@H]1O[C@H](O[C@H]2[C@@H](O)[C@H](O[C@@H]3[C@@H](O)[C@H](N)C[C@H](N)[C@H]3O[C@H]3O[C@H](CN)[C@@H](O)[C@H](O)[C@H]3N)O[C@@H]2CO)[C@H](N)[C@@H](O)[C@@H]1O [N*, Neomycin]
- Inhibition zone, E. coli ([1]; standard antibiotic disc 30 μg): 0 mm
- Inhibition zone, Ent. faecalis ([2]; standard antibiotic disc 30 μg): 0 mm
- Inhibition zone, C. albicans ([3]; standard antibiotic disc 30 μg): 0 mm
- Inhibition zone, S. aureus ([4]; standard antibiotic disc 30 μg): 0 mm
- Inhibition zone, P. aeruginosa ([5]; standard antibiotic disc 30 μg): 0 mm
- Inhibition zone, A. flavus ([6]; standard antibiotic disc 30 μg): 14 mm
- Inhibition zone, A. niger ([7]; standard antibiotic disc 30 μg): 16 mm
- Inhibition zone, B. subtilits ([8]; standard antibiotic disc 30 μg): 0 mm
- Inhibition zone, Proteus sp. (Proteus sp.; standard antibiotic disc 30 μg): 0 mm

SMILES: CN(C)[C@@H]1C(O)=C(C(N)=O)C(=O)[C@@]2(O)C(O)=C3C(=O)c4c(O)cccc4[C@@](C)(O)[C@H]3[C@H](O)[C@@H]12 [T*, Oxytetracycline]
- Inhibition zone, E. coli ([1]; standard antibiotic disc 30 μg): 0 mm
- Inhibition zone, Ent. faecalis ([2]; standard antibiotic disc 30 μg): 0 mm
- Inhibition zone, C. albicans ([3]; standard antibiotic disc 30 μg): 0 mm
- Inhibition zone, S. aureus ([4]; standard antibiotic disc 30 μg): 0 mm
- Inhibition zone, P. aeruginosa ([5]; standard antibiotic disc 30 μg): 0 mm
- Inhibition zone, A. flavus ([6]; standard antibiotic disc 30 μg): 0 mm
- Inhibition zone, A. niger ([7]; standard antibiotic disc 30 μg): 0 mm
- Inhibition zone, B. subtilits ([8]; standard antibiotic disc 30 μg): 30 mm
- Inhibition zone, Proteus sp. (Proteus sp.; standard antibiotic disc 30 μg): 0 mm

SMILES: CN(C)[C@@H]1C(O)=C(C(N)=O)C(=O)[C@@]2(O)C(O)=C3C(=O)c4c(O)cccc4[C@@](C)(O)[C@H]3C[C@@H]12 [TE*, Tetracyciline]
- Inhibition zone, E. coli ([1]; standard antibiotic disc 30 μg): 0 mm
- Inhibition zone, Ent. faecalis ([2]; standard antibiotic disc 30 μg): 0 mm
- Inhibition zone, C. albicans ([3]; standard antibiotic disc 30 μg): 0 mm
- Inhibition zone, S. aureus ([4]; standard antibiotic disc 30 μg): 0 mm
- Inhibition zone, P. aeruginosa ([5]; standard antibiotic disc 30 μg): 0 mm
- Inhibition zone, A. flavus ([6]; standard antibiotic disc 30 μg): 14 mm
- Inhibition zone, A. niger ([7]; standard antibiotic disc 30 μg): 16 mm
- Inhibition zone, B. subtilits ([8]; standard antibiotic disc 30 μg): 10 mm
- Inhibition zone, Proteus sp. (Proteus sp.; standard antibiotic disc 30 μg): 0 mm
